Source: the NIST ThermoML archive (doi:10.1021/je3003404)

Assay: mn = molality of the nth substance listed, in mol/kg
Details: 101 kPa, Liquid; for viscosity: Capillary tube (Ostwald / Ubbelohde) method; for electrical conductivity: Dip type conductivity cell; for mass density: Pycnometric method; for speed of sound: Sing-around technique in a fixed-path interferometer

CCCCCCCCCCCCCCCC[N+](C)(C)CC.[Br-] [ethylhexadecyldimethylammonium bromide] + O
Details | electrical conductivity [S/m] | mass density [kg/m3] | speed of sound [m/s] | viscosity [mPa·s]
298.15 K, m1 = 0.0002 | 0.0027 | 996.43 | 1498.5 | 0.8803
298.15 K, m1 = 0.0005 | 0.00707 | 996.47 | 1499.3 | 0.8841
298.15 K, m1 = 0.0008 | 0.0105 | 996.51 | 1500 | 0.887
298.15 K, m1 = 0.0012 | 0.0119 | 996.54 | 1500.3 | 0.8904
298.15 K, m1 = 0.0016 | 0.0127 | 996.56 | 1500.1 | 0.8929
298.15 K, m1 = 0.002 | 0.0138 | 996.58 | 1499.9 | 0.8952
298.15 K, m1 = 0.0025 | 0.0152 | 996.6 | 1499.9 | 0.8979
298.15 K, m1 = 0.003 | 0.0161 | 996.62 | 1499.7 | 0.9007
303.15 K, m1 = 0.0002 | 0.00301 | 994.49 | 1510.3 | 0.7889
303.15 K, m1 = 0.0005 | 0.00808 | 994.52 | 1511 | 0.792
303.15 K, m1 = 0.0008 | 0.0127 | 994.56 | 1511.8 | 0.7945
303.15 K, m1 = 0.0012 | 0.0144 | 994.59 | 1512.3 | 0.7978
303.15 K, m1 = 0.0016 | 0.0153 | 994.61 | 1512.2 | 0.8001
303.15 K, m1 = 0.002 | 0.0167 | 994.62 | 1512 | 0.8021
303.15 K, m1 = 0.0025 | 0.0178 | 994.64 | 1511.8 | 0.8047
303.15 K, m1 = 0.003 | 0.0194 | 994.66 | 1511.6 | 0.807
308.15 K, m1 = 0.0002 | 0.00338 | 992.55 | 1518.6 | 0.7097
308.15 K, m1 = 0.0005 | 0.00879 | 992.58 | 1519.2 | 0.7125
308.15 K, m1 = 0.0008 | 0.014 | 992.61 | 1519.9 | 0.7157
308.15 K, m1 = 0.0012 | 0.0161 | 992.63 | 1520.4 | 0.719
308.15 K, m1 = 0.0016 | 0.017 | 992.65 | 1520.2 | 0.7209
308.15 K, m1 = 0.002 | 0.0185 | 992.66 | 1520 | 0.7228
308.15 K, m1 = 0.0025 | 0.0195 | 992.67 | 1520 | 0.725
308.15 K, m1 = 0.003 | 0.0217 | 992.69 | 1519.5 | 0.7271
313.15 K, m1 = 0.0002 | 0.00364 | 990.61 | 1528.8 | 0.641
313.15 K, m1 = 0.0005 | 0.00952 | 990.63 | 1529.9 | 0.6432
313.15 K, m1 = 0.0008 | 0.0153 | 990.67 | 1530.4 | 0.6469
313.15 K, m1 = 0.0012 | 0.0183 | 990.68 | 1531.2 | 0.6502
313.15 K, m1 = 0.0016 | 0.0187 | 990.69 | 1531.1 | 0.652
313.15 K, m1 = 0.002 | 0.0209 | 990.7 | 1530.9 | 0.6539
313.15 K, m1 = 0.0025 | 0.0224 | 990.72 | 1530.7 | 0.6558
313.15 K, m1 = 0.003 | 0.0243 | 990.73 | 1530.5 | 0.6576
318.15 K, m1 = 0.0002 | 0.00396 | 988.67 | 1537.1 | 0.582
318.15 K, m1 = 0.0005 | 0.0107 | 988.68 | 1538.2 | 0.5832
318.15 K, m1 = 0.0008 | 0.0171 | 988.7 | 1538.5 | 0.587
318.15 K, m1 = 0.0012 | 0.021 | 988.73 | 1539.4 | 0.5903
318.15 K, m1 = 0.0016 | 0.023 | 988.74 | 1539.2 | 0.5922
318.15 K, m1 = 0.002 | 0.025 | 988.75 | 1539 | 0.5935
318.15 K, m1 = 0.0025 | 0.0265 | 988.76 | 1538.8 | 0.5954
318.15 K, m1 = 0.003 | 0.028 | 988.78 | 1538.6 | 0.5971
323.15 K, m1 = 0.0002 | – | 986.71 | 1541.7 | 0.5274
323.15 K, m1 = 0.0005 | – | 986.72 | 1542.8 | 0.5298
323.15 K, m1 = 0.0008 | – | 986.74 | 1543.5 | 0.5334
323.15 K, m1 = 0.0012 | – | 986.76 | 1544.5 | 0.5357
323.15 K, m1 = 0.0016 | – | 986.78 | 1544.3 | 0.5384
323.15 K, m1 = 0.002 | – | 986.79 | 1544.1 | 0.5398
323.15 K, m1 = 0.0025 | – | 986.8 | 1544 | 0.5413
323.15 K, m1 = 0.003 | – | 986.81 | 1543.8 | 0.5426
